Results taken from US20130310362A1, “FUSED PYRIMIDINES” (BAYER PHARMA AKTIEGESELLSCHAFT, priority 2009, published 2013).

Assays:
[1] = target: T1, human recombinant kinase full-length Akt2 (Homo sapiens, UniProt P31751); assay: Akt2 kinase assay (TR-FRET); type: biochemical; conditions: Akt2 activated by PDK1, 10 μM ATP, 1 μM peptide substrate, 60 min at 22° C.; read-out: IC50 Akt2 (Biological Assay 2.0)
T1 construct: human recombinant kinase full-length Akt2; His; purchased Invitrogen PV 3975; host or cells: insect cells
T1 sequence (P31751 whole entry): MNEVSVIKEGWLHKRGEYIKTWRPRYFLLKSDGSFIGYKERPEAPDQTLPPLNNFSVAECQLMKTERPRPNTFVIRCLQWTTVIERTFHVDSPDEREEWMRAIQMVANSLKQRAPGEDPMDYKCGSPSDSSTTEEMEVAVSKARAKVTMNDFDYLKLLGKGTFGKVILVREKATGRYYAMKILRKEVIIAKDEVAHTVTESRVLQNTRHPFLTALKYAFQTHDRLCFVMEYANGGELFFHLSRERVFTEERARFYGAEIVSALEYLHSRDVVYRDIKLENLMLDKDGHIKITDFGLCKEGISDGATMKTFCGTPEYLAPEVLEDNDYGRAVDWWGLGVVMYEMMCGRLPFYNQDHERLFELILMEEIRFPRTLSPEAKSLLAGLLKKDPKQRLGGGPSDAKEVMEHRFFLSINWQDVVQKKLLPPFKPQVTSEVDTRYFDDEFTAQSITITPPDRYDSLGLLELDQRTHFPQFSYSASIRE
Source text: Biological Assay 2.0: Akt2 Kinase Assay
Akt2 inhibitory activity of compounds of the present invention was quantified employing the Akt2 TR-FRET assay as described in the following paragraphs.
(§1) His-tagged human recombinant kinase full-length Akt2 expressed in insect cells and activated by PDK1 was purchased form Invitrogen (part number PV 3975). As substrate for the kinase reaction the biotinylated peptide biotin-Ahx-KKLNRTLSFAEPG (C-terminus in amide form) was used which can be purchased e.g. from the company Biosynthan GmbH (Berlin-Buch, Germany). For the assay 50 nl of a 100 fold concentrated solution of the test compound in DMSO was pipetted into a black low volume 384 well microtiter plate (Greiner Bio-One, Frickenhausen, Germany), 2 μl of a solution of Akt2 in assay buffer [50 mM TRIS/HCl pH 7.5, 5 mM MgCl2, 1 mM dithiothreitol, 0.02% (v/v) Triton X-100 (Sigma)] were added and the mixture was incubated for 15 min at 22° C. to allow pre-binding of the test compounds to the enzyme before the start of the kinase reaction. Then the kinase reaction was started by the addition of 3 μl of a solution of adenosine-tri-phosphate (ATP, 16.7 μM=>final conc. in the 5 μl assay volume is 10 μM) and substrate (1.67 μM=>final conc. in the 5 μl assay volume is 1 μM) in assay buffer and the resulting mixture was incubated for a reaction time of 60 min at 22° C. The concentration of Akt2 in the assay was adjusted depending of the activity of the enzyme lot and was chosen appropriate to have the assay in the linear range, typical enzyme concentrations were in the range of about 0.2 ng/μl (final conc. in the 5 μl assay volume).
(§2) The reaction was stopped by the addition of 5 μl of a solution of HTRF detection reagents (200 nM streptavidine-XL665 [Cisbio] and 1.5 nM anti-phosho-Serine antibody [Millipore, cat. #35-001] and 0.75 nM LANCE Eu-W 1024 labeled anti-mouse IgG antibody [Perkin Elmer]) in an aqueous EDTA-solution (100 mM EDTA, 0.1% (w/v) bovine serum albumin in 50 mM HEPES/NaOH pH 7.5). The resulting mixture was incubated 1 h at 22° C. to allow the binding of the biotinylated phosphorylated peptide to the streptavidine-XL665 and the antibodies. Subsequently the amount of phosphorylated substrate was evaluated by measurement of the resonance energy transfer from the anti-mouse-IgG-Eu-Chelate to the streptavidine-XL665. Therefore, the fluorescence emissions at 620 nm and 665 nm after excitation at 350 nm was measured in a TR-FRET reader, e.g. a Rubystar (BMG Labtechnologies, Offenburg, Germany) or a Viewlux (Perkin-Elmer). The ratio of the emissions at 665 nm and at […] was taken as the measure for the amount of phosphorylated substrate. The data were normalised (enzyme reaction without inhibitor=0% inhibition, all other assay components but no enzyme=100% inhibition).

[2] = target: T2, human recombinant kinase full-length Akt1 (Homo sapiens, UniProt P31749); assay: Akt1 kinase assay (TR-FRET); type: biochemical; conditions: 10 μM ATP, 1 μM peptide substrate, 60 min at 22° C.; read-out: IC50 Akt1 Biological Assay 1.0)
T2 construct: human recombinant kinase full-length Akt1; His; purchased Invitrogen PV 3599; host or cells: insect cells
T2 sequence (P31749 whole entry): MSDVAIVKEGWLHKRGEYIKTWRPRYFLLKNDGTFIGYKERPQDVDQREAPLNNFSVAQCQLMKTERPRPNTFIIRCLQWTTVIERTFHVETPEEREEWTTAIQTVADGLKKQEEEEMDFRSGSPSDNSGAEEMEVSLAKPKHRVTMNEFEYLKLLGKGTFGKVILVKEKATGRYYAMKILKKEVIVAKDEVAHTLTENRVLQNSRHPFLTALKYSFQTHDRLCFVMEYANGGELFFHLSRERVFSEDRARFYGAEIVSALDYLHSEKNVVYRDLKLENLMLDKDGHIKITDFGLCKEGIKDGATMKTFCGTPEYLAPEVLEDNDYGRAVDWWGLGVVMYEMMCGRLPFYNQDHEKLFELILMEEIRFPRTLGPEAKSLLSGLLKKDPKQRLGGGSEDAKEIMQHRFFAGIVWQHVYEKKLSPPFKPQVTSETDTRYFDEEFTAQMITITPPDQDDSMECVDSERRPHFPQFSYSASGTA
Source text: Biological Assay 1.0: Akt1 Kinase Assay
Akt1 inhibitory activity of compounds of the present invention may be quantified employing the Akt1 TR-FRET assay as described in the following paragraphs.
His-tagged human recombinant kinase full-length Akt1 expressed in insect cells was purchased form Invitrogen (part number PV 3599). As substrate for the kinase reaction the biotinylated peptide biotin-Ahx-KKLNRTLSFAEPG (C-terminus in amide form) was used which can be purchased e.g. from the company Biosynthan GmbH (Berlin-Buch, Germany).
as §1, with “For” for “His-tagged human recombinant kinase full-length Akt2 expressed in insect cells and activated by PDK1 was purchased form Invitrogen (part number PV 3975). As substrate for the kinase reaction the biotinylated peptide biotin-Ahx-KKLNRTLSFAEPG (C-terminus in amide form) was used which can be purchased e.g. from the company Biosynthan GmbH (Berlin-Buch, Germany). For”, “Akt1” for “Akt2”, “0.05” for “0.2”
as §2, with “HTRF” for “TR-FRET”, “inhibition). Normally test compound were tested on the same microtiter plate at 10 different concentrations in the range of 20 μM to 1 nM (20 μM, 6.7 μM, 2.2 μM, 0.74 μM, 0.25 μM, 82 nM, 27 nM, 9.2 nM, 3.1 nM and 1 nM, dilution series prepared before the assay at the level of the 100 fold conc. stock solutions by serial 1:3 dilutions) in duplicate values for each concentration and […] were calculated by a 4 parameter fit using an inhouse software.” for “inhibition).”

[3] = tested on: Akt phosphorylation (Ser473) in MCF7 cells; assay: Cellular PI3K/Akt pathway assay (Phospho-Akt1 (Ser473) sandwich ELISA); type: cell-based; conditions: Homo sapiens, β-Heregulin stimulated, 48 h incubation, read-out: IC50 p-Akt (Biological Assay 5.0)
Procedure: Biological Assay 5.0: Cellular PI3K/Akt Pathway Assay
In order to study the cellular activity of the compounds according to the present invention, an Enzyme Linked Immunosorbent Assay (ELISA)-based assay may be used to investigate the inhibitory effect on Akt phosphorylation.
The ELISA Kit detects endogenous levels of phosphorylated Akt protein. […] After incubation with cell lysates, the coated antibody captures the phosphorylated Akt protein. […] The magnitude of optical density for this developed color is proportional to the quantity of phosphorylated Akt protein. MCF7 cells (ATCC HTB-22) are seeded into 96 well fate bottom plates at a density of 10000 cells/well. 24 hours after seeding, the cells are serum starved using low-serum medium (IMEM media including 0.1% charcoal treated FCS (FCS: fetal calf serum)). After 24 hours 1 μl each of the compound dilutions (test compounds were dissolved as 10 mM solutions in dimethylsulfoxide (DMSO) and subsequently diluted) are added into each well of the 96 well plates and incubated for 48 h at 37° C. in a humidified athmosphere containing 5% CO2. To stimulate Akt phosphorylation, β-Heregulin (20 ng/mL β-HRG) is added in parallel to the compounds. Wells containing unstimulated control cells (no β-Heregulin stimulation) are incubated with or without the diluted compound. Wells containing untreated control cells (no compound) are filled with medium containing 0.5% v:v DMSO and are or are not stimulated with 3-Heregulin.
Cells are harvested and lysed with brief sonification in 1× cell lysis buffer (20 mM Tris (pH7.5), 150 mM NaCl, 1 mM ethylene diaminetetraacetate (EDTA), 1 mM ethylene glycolbis(2-aminoethyl)-N,N,N′,N′-tetraacetic acid (EGTA), 1 vol % Triton X-100, 2.5 mM sodium pyrophosphate, 1 mM β-glycerolphosphate, 1 mM Na3VO4, 1 μg/mL leupeptin). The lysate is centrifuged for 10 min. at 4° C. and the supernatant is transferred to a new tube. […] The absorbance is measured at λ=450 nm (Wallac Victor2; Perkin Elmer, USA) within 30 min. after adding the STOP solution. […]

IC50 [1] [nM]	IC50 [2] [nM]	IC50 [3] [nM]	Structure (SMILES)
53	4	< 50	Cc1nc(-c2ccc(CN3CCC(c4n[nH]c(-c5ccccn5)n4)CC3)cc2)c(-c2ccccc2)c2nccn12 [Example 1.0, 5-methyl-8-phenyl-7-{4-[4-(5-pyridin-2-yl-1H-[1,2,4]triazol-3-yl)-piperidin-1-ylmethyl]-phenyl}-imidazo[1,2-c]pyrimidine]
42	8	8	c1ccc(-c2c(-c3ccc(CN4CCC(c5n[nH]c(-c6ccccn6)n5)CC4)cc3)ncn3ccnc23)cc1 [Example 2.0, 8-phenyl-7-{4-[4-(5-pyridin-2-yl-1H-[1,2,4]triazol-3-yl)-piperidin-1-ylmethyl]-phenyl}-imidazo[1,2-c]pyrimidine]
